From patent US20150336889A1, “INDOLE DERIVATIVES, PHARMACEUTICAL COMPOSITIONS CONTAINING SUCH INDOLES AND THEIR USE AS DNA METHYLATION MODULATORS” (IKERCHEM, S.L., priority 2012, published 2015)

What was measured:
Format in all cases: cell-based
LoVo = experiment: Cancer cell growth inhibition, LoVo; conditions: Homo sapiens, Colorectal, cell viability, 72 h
Procedure: (§1) Cell culture-based assays were used to evaluate the ability of compounds of the invention to inhibit cancer cell growth inhibition.
(§2) Cells were obtained from the American Type Culture Collection (ATCC) and European Collection of Cell Cultures (ECACC).
(§3) Cells were thawed in their appropriate media plus supplements (see table below). Cells were passaged at confluence by washing once in HBSS cation-free followed by a 3 minutes incubation with trypsin ([0.5 μg/ml]/EDTA [0.2 μg/ml]) (Gibco-BRL, 15400054) solution in HBSS at 37° C. (except non-adherent cell lines), and transferred to their appropriate media plus supplements. Prior to seeding at defined cell concentration, cells were recovered in medium, centrifuged and taken up in medium, and counted.
(§4) Cells were plated at 3000/5000/10000 cells/well in 100 μl media in tissue culture 96 well plates (Cultek). After 24 h, media was supplemented by 100 μl/well of diluted IPDNs at 100 μM.
(§5) The Hexosaminidase assay was used for the adherent cell lines, whereas the AlamarBlue® assay was used for the non-adherent cell lines.
(§6) Dose-response curves were generated by serial dilutions (1:1) of the compounds. […] Reagent blanks, containing media plus colorimetric reagent without cells were run on each plate. Blank values were subtracted from test values and were routinely 5-10% of uninhibited control values. Plates were incubated 72 h, and living cell number was determined by AlamarBlue® and Hexosaminidase test. The advantages of using those assays are that both can be done in the same microwell plate. AlamarBlue® assay: plates were incubated 72 h and living cell number was determined by AlamarBlue (Biosource DAL1100). After 4 h incubation at 37° C., relative fluorescent intensity, which correlates with the number of living cells, was read in a Cytofluor plate reader (Millipore) at 535/590 nm (Excitation/emission). The hexosaminidase activity was measured according to the following protocol: the media was removed and cells were washed once with PBS. […]

Jurkat = experiment: Cancer cell growth inhibition, Jurkat; conditions: Homo sapiens, Hematologic, cell viability, 72 h
Procedure: as §1, §2, §3, §4, §5
(§7) Dose-response curves were generated by serial dilutions (1:1) of the compounds. […] Reagent blanks, containing media plus colorimetric reagent without cells were run on each plate. Blank values were subtracted from test values and were routinely 5-10% of uninhibited control values. Plates were incubated 72 h, and living cell number was determined by AlamarBlue® and Hexosaminidase test. The advantages of using those assays are that both can be done in the same microwell plate. AlamarBlue® assay: plates were incubated 72 h and living cell number was determined by AlamarBlue (Biosource DAL1100). After 4 h incubation at 37° C., relative fluorescent intensity, which correlates with the number of living cells, was read in a Cytofluor plate reader (Millipore) at 535/590 nm (Excitation/emission). The hexosaminidase activity was measured according to the following protocol: the media was removed and cells were washed once with PBS.
(§8) Data analysis was done by calculating the percentage of cell viability normalized in front of negative control values, which were considered as a 100%. The curve was adjusted using a sigmoidal dose-response (variable slope) equation and EC50 values were obtained from the equation
(§9) where, X is the logarithm of concentration. Y is the response. Bottom is the Y value at the bottom plateau Top is the Y value at the top plateau LogEC50 is the X value when the response is halfway between Bottom and Top. With different kinds of variables, this variable is sometimes called ED50 (effective dose, 50%), or IC50 (inhibitory concentration, 50%, used when the curve goes downhill).

CCFR-CEM = experiment: Cancer cell growth inhibition, CCFR-CEM; conditions: Hematologic, cell viability, 72 h
Procedure: as §1, §2, §3, §4, §5, §7, §8, §9

Daoy = experiment: Cancer cell growth inhibition, Daoy; conditions: Homo sapiens, Brain, cell viability, 72 h
Procedure: as §1, §2, §3, §4, §5, §7, §8, §9

PC3 = experiment: Cancer cell growth inhibition, PC3; conditions: Homo sapiens, PC-3; Prostate, PC3, cell viability, 72 h
Procedure: as §1, §2, §3, §4, §5, §7, §8, §9

BxPC3 = experiment: Cancer cell growth inhibition, BxPC3; conditions: Homo sapiens, BXPC-3; Pancreatic, BxPC3, cell viability, 72 h
Procedure: as §1, §2, §3, §4, §5, §6

SK-MEL-28 = experiment: Cancer cell growth inhibition, SK-MEL-28; conditions: Homo sapiens; Melanoma, SK-MEL-28, cell viability, 72 h
Procedure: as §1, §2, §3, §4, §5, §6

DU-145 = experiment: Cancer cell growth inhibition, DU-145; conditions: Homo sapiens; Prostate, DU-145, cell viability, 72 h
Procedure: as §1, §2, §3, §4, §5, §6

A-549 = experiment: Cancer cell growth inhibition, A-549; conditions: Homo sapiens, A549; Lung, A-549, cell viability, 72 h
Procedure: as §1, §2, §3, §4, §5, §7, §8, §9

NCI-H358 = experiment: Cancer cell growth inhibition, NCI-H358; conditions: Homo sapiens; Lung, NCI-H358, cell viability, 72 h
Procedure: as §1, §2, §3, §4, §5, §7, §8, §9

RWPI = experiment: Cancer cell growth inhibition, RWPI; conditions: Pancreatic, cell viability, 72 h
Procedure: as §1, §2
as §3, with “counted. […]” for “counted.”
(§10) Dose-response curves were generated by serial dilutions (1:1) of the compounds. […] Plates were incubated 72 h, and living cell number was determined by AlamarBlue® and Hexosaminidase test. […] AlamarBlue® assay: plates were incubated 72 h and living cell number was determined by AlamarBlue (Biosource DAL1100). After 4 h incubation at 37° C., relative fluorescent intensity, which correlates with the number of living cells, was read in a Cytofluor plate reader (Millipore) at 535/590 nm (Excitation/emission). The hexosaminidase activity was measured according to the following protocol: the media was removed and cells were washed once with PBS. […]

HCT-116 = experiment: Cancer cell growth inhibition, HCT-116; conditions: Homo sapiens; Colorectal, HCT-116, cell viability, 72 h
Procedure: as §1, §2, §3, §4, §5, §7, §8, §9

OVCAR-3 = experiment: Cancer cell growth inhibition, OVCAR-3; conditions: Homo sapiens; Ovarian, OVCAR-3, cell viability, 72 h
Procedure: as §1, §2
as §3, with “counted. […]” for “counted.”
as §10

LnCaP = experiment: Cancer cell growth inhibition, LnCaP; conditions: Homo sapiens, Prostate, cell viability, 72 h
Procedure: as §1, §2, §3, §4, §5, §7, §8, §9

K562 = experiment: Cancer cell growth inhibition, K562; conditions: Homo sapiens; Hematologic, K562, cell viability, 72 h
Procedure: as §1, §2, §3, §4, §5, §6

MDA-MB-435 = experiment: Cancer cell growth inhibition, MDA-MB-435; conditions: Homo sapiens; Melanoma, MDA-MB-435, cell viability, 72 h
Procedure: as §1, §2, §3, §4, §5, §7, §8, §9

A-431 = experiment: Cancer cell growth inhibition, A-431; conditions: Homo sapiens; Epidermoid, A-431, cell viability, 72 h
Procedure: as §1, §2, §3, §4, §5, §7, §8, §9

RAMOS = experiment: Cancer cell growth inhibition, RAMOS; conditions: Homo sapiens, Hematologic, cell viability, 72 h
Procedure: as §1, §2, §3, §4, §5, §7, §8, §9

HT-1080 = experiment: Cancer cell growth inhibition, HT-1080; conditions: Homo sapiens; HT-1080, cell viability, 72 h
Procedure: as §1, §2, §3, §4, §5, §7, §8, §9

MiaPaCa-2 = experiment: Cancer cell growth inhibition, MiaPaCa-2; conditions: Homo sapiens, MIA PaCa-2; Pancreatic, MiaPaCa-2, cell viability, 72 h
Procedure: as §1, §2, §3, §4, §5, §7, §8, §9

RPMI-8226 = experiment: Cancer cell growth inhibition, RPMI-8226; conditions: Homo sapiens; Multiple Myelome, RPMI-8226, cell viability, 72 h
Procedure: as §1, §2, §3, §4, §5, §7, §8, §9

SK-OV-3 = experiment: Cancer cell growth inhibition, SK-OV-3; conditions: Homo sapiens; Ovarian, SK-OV-3, cell viability, 72 h
Procedure: as §1, §2, §3, §4, §5, §6

U-87MG = experiment: Cancer cell growth inhibition, U-87MG; conditions: Homo sapiens, Brain, cell viability, 72 h
Procedure: as §1, §2, §3, §4, §5, §7, §8, §9

MCF-7 = experiment: Cancer cell growth inhibition, MCF-7; conditions: Homo sapiens, MCF7; Breast, MCF-7, cell viability, 72 h
Procedure: as §1, §2, §3, §4, §5, §7, §8, §9

SK-HEP-1 = experiment: Cancer cell growth inhibition, SK-HEP-1; conditions: Homo sapiens, SK-HEP1; Liver, SK-HEP-1, cell viability, 72 h
Procedure: as §1, §2, §3, §4, §5, §6

HT-29 = experiment: Cancer cell growth inhibition, HT-29; conditions: Homo sapiens; Colorectal, HT-29, cell viability, 72 h
Procedure: as §1, §2, §3, §4, §5, §6

Compound | EC50 (LoVo) | EC50 (Jurkat) | EC50 (CCFR-CEM) | EC50 (Daoy) | EC50 (PC3) | EC50 (BxPC3) | EC50 (SK-MEL-28) | EC50 (DU-145) | EC50 (A-549) | EC50 (NCI-H358) | EC50 (RWPI) | EC50 (HCT-116) | EC50 (OVCAR-3) | EC50 (LnCaP) | EC50 (K562) | EC50 (MDA-MB-435) | EC50 (A-431) | EC50 (RAMOS) | EC50 (HT-1080) | EC50 (MiaPaCa-2) | further results
COc1cc(OC)c2c(-c3ccc(O)cc3)cn(CC(=O)c3ccc(O)cc3)c2c1 [Example 6, 1-(4-hydroxyphenyl)-2-[3-(4-hydroxyphenyl)-4,6-dimethoxy-1H-indol-1-yl]ethanone] | 12 µM | 1.9 µM | 6.3 µM | 4.2 µM | 51 µM | 15 µM | 4.8 µM | 16 µM | 11 µM | 7.3 µM | 25 µM | 5.7 µM | 7.2 µM | 4.8 µM | 13 µM | 4.3 µM | 11 µM | 6.6 µM | 9.7 µM | 5.5 µM | EC50 (RPMI-8226): 6.4 µM; EC50 (SK-OV-3): 4.1 µM; EC50 (U-87MG): 13 µM; EC50 (MCF-7): 6.2 µM; EC50 (SK-HEP-1): 31 µM; EC50 (HT-29): 11 µM
O=C(Cn1cc(-c2ccc(O)cc2)c2c(F)cc(F)cc21)c1ccc(O)cc1 [Example 16, 2-[4,6-difluoro-3-(4-hydroxyphenyl)-1H-indol-1-yl]-1-(4-hydroxyphenyl) ethanone] | 50 µM | 30 µM | 57 µM | 50 µM | 83 µM | 34 µM | 59 µM | 65 µM | 39 µM | 23 µM | 46 µM | 37 µM | 47 µM | 43 µM | 51 µM | 57 µM | 66 µM | 35 µM | 52 µM | 61 µM | EC50 (RPMI-8226): 65 µM; EC50 (SK-OV-3): 44 µM; EC50 (U-87MG): 95 µM; EC50 (MCF-7): 41 µM; EC50 (SK-HEP-1): 35 µM; EC50 (HT-29): 66 µM
